Laboratory results: patent publication US6737383B1, “Herbicidal oxadiazolidines” (priority 1999, dated 2004)

Assays:
purple nutsedge = assay: Test D purple nutsedge; type: in vivo, Cyperus rotundus; conditions: Preemergence, 0 to 100 scale; for Purple nutsedge plant response rating: 0 no injury, 100 complete control
Procedure, shortened: (§1)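 Weed seeds planted in sandy loam; species kept apart in individual pots or compartments. Preemergence tests: treatment to soil surface within one day. Greenhouse growth, then visual injury scoring at 14–21 days (0–100).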

dallisgrass = assay: Test D dallisgrass; type: in vivo, Paspalum dilatatum; conditions: Preemergence, 0 to 100 scale
Procedure, shortened: as §1

Alexandergrass = assay: Test D Alexandergrass; type: in vivo, Brachiaria plantaginea; conditions: Preemergence, 0 to 100 scale
Procedure, shortened: as §1

pitted morningglory = assay: Test D pitted morningglory; type: in vivo, Ipomoea lacunosa; conditions: Preemergence, 0 to 100 scale
Procedure, shortened: as §1

guineagrass = assay: Test D guineagrass; type: in vivo, Panicum maximum; conditions: Preemergence, 0 to 100 scale
Procedure, shortened: as §1

Green foxtail [1] = assay: Test D green foxtail; type: in vivo; conditions: Preemergence, 0 to 100 scale
Procedure, shortened: as §1

goosegrass = assay: Test D goosegrass; type: in vivo, Eleusine indica; conditions: Preemergence, 0 to 100 scale
Procedure, shortened: as §1

tall mallow = assay: Test D tall mallow; type: in vivo, Malva sylvestris; conditions: Preemergence, 0 to 100 scale; for Tall Mallow plant response rating: 0 no injury, 100 complete control
Procedure, shortened: as §1

sandbur = assay: Test D sandbur; type: in vivo, Cenchrus echinatus; conditions: Preemergence, 0 to 100 scale; for Sandbur plant response rating: 0 no injury, 100 complete control
Procedure, shortened: as §1

Green foxtail [2] = assay: Test D green foxtail; type: in vivo; conditions: Rate 500 g/ha; Preemergence; 0 to 100 scale
Procedure, shortened: as §1

itchgrass = assay: Test D itchgrass; type: in vivo, Rottboellia exaltata; conditions: Preemergence, 0 to 100 scale
Procedure, shortened: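 Scoring used a 0–100 visual injury scale, with 0 meaning no effect and 100 complete control, assessed 14–21 days after application alongside untreated pots. Preemergence treatments went onto sandy loam surfaces of separately potted seeds within a day of sowing.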

common groundsel = assay: Test D common groundsel; type: in vivo, Senecio vulgaris; conditions: Preemergence, 0 to 100 scale
Procedure, shortened: as §1

Spanishneedles = assay: Test D Spanishneedles; type: in vivo, Bidens bipinnata; conditions: Preemergence, 0 to 100 scale; for Spanishneedles plant response rating: 0 no injury, 100 complete control
Procedure, shortened: as §1

bermuda-grass = assay: Test D bermudagrass; type: in vivo, Cynodon dactylon; conditions: Preemergence, 0 to 100 scale
Procedure, shortened: as §1

large crabgrass = assay: Test D large crabgrass; type: in vivo, Digitaria sanguinalis; conditions: Preemergence, 0 to 100 scale
Procedure, shortened: as §1

common ragweed = assay: Test D common ragweed; type: in vivo, Ambrosia elatior; conditions: Preemergence, 0 to 100 scale
Procedure, shortened: as §1

Johnson grass = assay: Test D Johnson grass; type: in vivo, Sorghum halepense; conditions: Preemergence, 0 to 100 scale
Procedure, shortened: as §1

surinam grass = assay: Test D surinam grass; type: in vivo, Brachiaria decumbens; conditions: Preemergence, 0 to 100 scale; for Surinam grass plant response rating: 0 no injury, 100 complete control
Procedure, shortened: as §1

[3] = Rate 64 g/ha, 0 no injury, 100 complete control
[4] = Rate 125 g/ha, 0 no injury, 100 complete control

Q: With `CCn1c(=O)on(C(=O)N(c2ccccc2)C(C)C)c1=O` [Compound 117] as the compound, how does the “Purple nutsedge plant response rating” value (purple nutsedge; Rate 64 g/ha) read?
A: 0

Q: What about the “Purple nutsedge plant response rating” value (purple nutsedge; Rate 125 g/ha) of the same compound?
A: 0

Q: And the “Plant response rating, Purple nutsedge” value (purple nutsedge; Rate 500 g/ha)?
A: 100

Q: What about the “Plant response rating, Dallisgrass” value (dallisgrass; [3]) of the same compound?
A: 85

Q: What about the “Plant response rating, Dallisgrass” value (dallisgrass; [4]) of the same compound?
A: 95

Q: What about the “Plant response rating, Dallisgrass” value (dallisgrass; Rate 500 g/ha) of the same compound?
A: 100

Q: And the “Plant response rating, Alexandergrass” value (Alexandergrass; [3])?
A: 90

Q: And the “Plant response rating, Alexandergrass” value (Alexandergrass; [4])?
A: 90

Q: What about the “Plant response rating, Alexandergrass” value (Alexandergrass; Rate 500 g/ha) of the same compound?
A: 98

Q: What about the “Plant response rating, P. morninglory” value (pitted morningglory; [3]) of the same compound?
A: 0

Q: What about the “Plant response rating, P. morninglory” value (pitted morningglory; [4]) of the same compound?
A: 20

Q: What about the “Plant response rating, P. morninglory” value (pitted morningglory; Rate 500 g/ha) of the same compound?
A: 40

Q: And the “Plant response rating, Guineagrass” value (guineagrass; [3])?
A: 100

Q: What about the “Plant response rating, Guineagrass” value (guineagrass; [4]) of the same compound?
A: 100

Q: What about the “Plant response rating, Guineagrass” value (guineagrass; Rate 500 g/ha) of the same compound?
A: 100

Q: What about the “Green foxtail plant response rating” value (Green foxtail [1]; [3]) of the same compound?
A: 100

Q: And the “Plant response rating, Green foxtail” value (Green foxtail [1]; [3])?
A: 100

Q: What about the “Green foxtail plant response rating” value (Green foxtail [1]; [4]) of the same compound?
A: 100

Q: And the “Plant response rating, Green foxtail” value (Green foxtail [1]; [4])?
A: 100

Q: And the “Plant response rating, Green foxtail” value (Green foxtail [1]; Rate 500 g/ha)?
A: 100

Q: And the “Plant response rating, Goosegrass” value (goosegrass; [3])?
A: 85

Q: And the “Plant response rating, Goosegrass” value (goosegrass; [4])?
A: 100

Q: And the “Plant response rating, Goosegrass” value (goosegrass; Rate 500 g/ha)?
A: 100

Q: And the “Tall Mallow plant response rating” value (tall mallow; Rate 64 g/ha)?
A: 40

Q: And the “Tall Mallow plant response rating” value (tall mallow; Rate 125 g/ha)?
A: 65

Q: What about the “Plant response rating, Tall Mallow” value (tall mallow; Rate 500 g/ha) of the same compound?
A: 100

Q: And the “Sandbur plant response rating” value (sandbur; Rate 64 g/ha)?
A: 0

Q: And the “Sandbur plant response rating” value (sandbur; Rate 125 g/ha)?
A: 0

Q: What about the “Plant response rating, Sandbur” value (sandbur; Rate 500 g/ha) of the same compound?
A: 100

Q: What about the “Plant response rating, Green foxtail” value (Green foxtail [2]) of the same compound?
A: 100

Q: And the “Plant response rating, Itchgrass” value (itchgrass; [3])?
A: 40

Q: What about the “Plant response rating, Itchgrass” value (itchgrass; [4]) of the same compound?
A: 75

Q: What about the “Plant response rating, Itchgrass” value (itchgrass; Rate 500 g/ha) of the same compound?
A: 100

Q: And the “Plant response rating, Com. groundsel” value (common groundsel; [3])?
A: 0

Q: And the “Plant response rating, Com. groundsel” value (common groundsel; [4])?
A: 75

Q: And the “Plant response rating, Com. groundsel” value (common groundsel; Rate 500 g/ha)?
A: 100

Q: And the “Spanishneedles plant response rating” value (Spanishneedles; Rate 64 g/ha)?
A: 0

Q: And the “Spanishneedles plant response rating” value (Spanishneedles; Rate 125 g/ha)?
A: 0

Q: What about the “Plant response rating, Spanishneedles” value (Spanishneedles; Rate 500 g/ha) of the same compound?
A: 0

Q: What about the “Plant response rating, Bermudagrass” value (bermuda-grass; [3]) of the same compound?
A: 98

Q: What about the “Plant response rating, Bermudagrass” value (bermuda-grass; [4]) of the same compound?
A: 100

Q: And the “Plant response rating, Bermudagrass” value (bermuda-grass; Rate 500 g/ha)?
A: 100

Q: And the “Plant response rating Large crabgrass” value (large crabgrass; [3])?
A: 98

Q: What about the “Plant response rating Large crabgrass” value (large crabgrass; [4]) of the same compound?
A: 98

Q: And the “Plant response rating Large crabgrass” value (large crabgrass; Rate 500 g/ha)?
A: 100

Q: What about the “Plant response rating, C. ragweed” value (common ragweed; [3]) of the same compound?
A: 0

Q: What about the “Plant response rating, C. ragweed” value (common ragweed; [4]) of the same compound?
A: 0

Q: And the “Plant response rating, C. ragweed” value (common ragweed; Rate 500 g/ha)?
A: 65

Q: What about the “Plant response rating Johnsongrass” value (Johnson grass; [3]) of the same compound?
A: 90

Q: What about the “Plant response rating Johnsongrass” value (Johnson grass; [4]) of the same compound?
A: 90

Q: And the “Plant response rating Johnsongrass” value (Johnson grass; Rate 500 g/ha)?
A: 100

Q: What about the “Surinam grass plant response rating” value (surinam grass; Rate 64 g/ha) of the same compound?
A: 80

Q: What about the “Surinam grass plant response rating” value (surinam grass; Rate 125 g/ha) of the same compound?
A: 100

Q: And the “Plant response rating, Surinam grass” value (surinam grass; Rate 500 g/ha)?
A: 100
